6 compounds from patent US20240208992A1, “MACROCYCLES AS CFTR MODULATORS” (Idorsia Pharmaceuticals Ltd, priority 2021, published 2024) can be followed below.

pEC50: −log10 of the molar value.

The target in the assay is human F508del-CFTR (Homo sapiens, UniProt P13569, DEL508-508). The experiment in a line: F508del-CFTR cell surface expression (corrector activity), DiscoveRx ß-galactosidase complementation chemiluminescence assay in recombinant U2OS cell line.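 As to all read-outs here: U2OS cells co-expressing ProLink-tagged F508del-CFTR and a membrane-anchored enzyme acceptor, where more surface CFTR restores β-galactosidase activity measured by chemiluminescence.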 The following applies: U2OS cell line, 16h compound incubation; for pEC50: EC50, F508del-CFTR cell surface expression, geomean values; for Emax: U2OS, in relation to the Emax of the corrector lumacaftor (=100%), arithmetic mean values.
Chain of human F508del-CFTR (P13569 with tags, fused parts or gaps DEL508-508): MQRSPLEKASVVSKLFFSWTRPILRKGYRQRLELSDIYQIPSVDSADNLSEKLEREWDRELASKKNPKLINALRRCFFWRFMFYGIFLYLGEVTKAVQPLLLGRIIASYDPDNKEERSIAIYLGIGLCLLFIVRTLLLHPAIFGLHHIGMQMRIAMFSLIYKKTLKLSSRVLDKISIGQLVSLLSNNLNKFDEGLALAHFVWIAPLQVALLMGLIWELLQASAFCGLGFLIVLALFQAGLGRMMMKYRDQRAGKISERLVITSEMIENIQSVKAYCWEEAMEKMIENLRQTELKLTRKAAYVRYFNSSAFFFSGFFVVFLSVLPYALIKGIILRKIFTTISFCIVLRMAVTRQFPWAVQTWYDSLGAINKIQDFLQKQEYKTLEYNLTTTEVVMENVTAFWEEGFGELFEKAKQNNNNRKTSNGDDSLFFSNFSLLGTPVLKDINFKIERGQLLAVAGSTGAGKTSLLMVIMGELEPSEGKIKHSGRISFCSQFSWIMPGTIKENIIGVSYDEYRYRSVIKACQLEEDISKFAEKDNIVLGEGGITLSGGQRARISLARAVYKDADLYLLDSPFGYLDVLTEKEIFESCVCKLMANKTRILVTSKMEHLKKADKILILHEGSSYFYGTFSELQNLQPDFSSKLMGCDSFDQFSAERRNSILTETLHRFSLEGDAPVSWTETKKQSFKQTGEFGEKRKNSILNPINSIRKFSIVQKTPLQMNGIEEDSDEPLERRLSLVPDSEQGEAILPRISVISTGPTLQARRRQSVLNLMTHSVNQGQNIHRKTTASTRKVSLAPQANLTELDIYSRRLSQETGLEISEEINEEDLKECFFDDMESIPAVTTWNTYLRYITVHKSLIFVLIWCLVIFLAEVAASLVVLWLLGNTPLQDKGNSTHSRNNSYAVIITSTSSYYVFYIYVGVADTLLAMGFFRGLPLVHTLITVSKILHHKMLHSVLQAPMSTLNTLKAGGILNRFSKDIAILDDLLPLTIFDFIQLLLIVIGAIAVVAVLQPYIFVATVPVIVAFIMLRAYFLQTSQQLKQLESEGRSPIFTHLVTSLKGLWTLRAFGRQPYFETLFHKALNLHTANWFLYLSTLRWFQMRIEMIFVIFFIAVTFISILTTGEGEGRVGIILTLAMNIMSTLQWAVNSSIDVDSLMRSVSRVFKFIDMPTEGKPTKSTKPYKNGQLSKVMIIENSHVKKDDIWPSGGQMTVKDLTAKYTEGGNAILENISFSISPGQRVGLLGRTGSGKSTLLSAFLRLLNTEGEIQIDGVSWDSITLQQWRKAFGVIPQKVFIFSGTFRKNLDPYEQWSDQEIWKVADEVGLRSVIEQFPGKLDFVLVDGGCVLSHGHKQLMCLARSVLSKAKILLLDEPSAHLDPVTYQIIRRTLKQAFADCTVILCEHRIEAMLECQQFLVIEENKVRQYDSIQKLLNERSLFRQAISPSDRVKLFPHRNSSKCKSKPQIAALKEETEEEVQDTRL

For orientation: pEC50 means −log10 of the EC50, conventionally taken in molar units. The term Emax denotes the size of the effect at its maximum, as opposed to the concentration needed. Take `COc1cccc(CCNC(=O)[C@@H]2CC(=O)N(C)[C@@H](CC(C)C)C(=O)N(CCC3CCCCC3)CC(=O)N[C@H](Cc3ccccc3)COc3cccc(OC)c3C(=O)N2)n1` [Example 220, (3R,9S,13S)-3-benzyl-7-(2-cyclohexylethyl)-9-isobutyl-16-methoxy-N-(2-(6-methoxypyridin-2-yl)ethyl)-10-methyl-5,8,11,15-tetraoxo-2,3,4,5,6,7,8,9,10,11,12,13,14,15-tetradecahydrobenzo[p][1]oxa[4,7,10,14]tetraazacycloheptadecine-13-carboxamide]: the negative-log EC50 (pEC50) was 6.59 and the maximal response (Emax) amounted to 103%.

As for `CC(C)C[C@H]1C(=O)N2CCOC[C@@H]2C(=O)N[C@H](Cc2ccccc2)COc2cnc3ccccc3c2C(=O)N[C@H](C(=O)NCCc2cc(C(F)(F)F)no2)CC(=O)N1C` [Example 221, (9S,13S,19aR,22R)-22-benzyl-13-isobutyl-12-methyl-7,11,14,20-tetraoxo-N-(2-(3-(trifluoromethyl)isoxazol-5-yl)ethyl)-7,8,9,10,11,12,13,14,16,17,19,19a,20,21,22,23-hexadecahydro-[1,4]oxazino[3′,4′:6,7][1]oxa[4,7,10,14]tetraazacycloheptadecino[17,16-c]quinoline-9-carboxamide], the pEC50 is 6.08 and the maximum response (Emax) turned out to be 229%.

Turning to `COc1cccc(CCNC(=O)[C@@H]2CC(=O)N(C)[C@@H](CC(C)C)C(=O)N3CCOC[C@@H]3C(=O)N[C@H](Cc3ccccc3)COc3ccc4ccccc4c3C(=O)N2)c1` [Example 222, (4aR,7R,18S,22S)-7-Benzyl-22-isobutyl-N-(3-methoxyphenethyl)-21-methyl-5,16,20,23-tetraoxo-1,2,4,4a,5,6,7,8,16,17,18,19,20,21,22,23-hexadecahydronaphtho[1,2-p][1,4]oxazino[3,4-f][1]oxa[4,7,10,14]tetraazacycloheptadecine-18-carboxamide], the pEC50 was 6.67 and the Emax turned out to be 249%.

On to `CC(C)C[C@H]1C(=O)N(C)CC(=O)N[C@H](Cc2ccccc2)COc2cc3c(cc2C(=O)N[C@H](C(=O)NCCc2ccc4c(c2)OCO4)CC(=O)N1C)OCO3` [Example 223, (7R,13S,17S)-N-(2-(benzo[d][1,3]dioxol-5-yl)ethyl)-7-benzyl-13-isobutyl-11,14-dimethyl-9,12,15,19-tetraoxo-6,7,8,9,10,11,12,13,14,15,16,17,18,19-tetradecahydro-[1,3]dioxolo[4′,5′:4,5]benzo[1,2-p][1]oxa[4,7,10,14]tetraazacycloheptadecine-17-carboxamide], for which the pEC50 is 6.41 and the Emax was found to be 141%.

In the case of `COc1cccc(CCNC(=O)[C@@H]2CC(=O)N(C)[C@@H](CC(C)C)C(=O)N(C)CC(=O)N[C@H](Cc3ccccc3)COc3cc4c(cc3C(=O)N2)OCO4)c1` [Example 224, (7R,13S,17S)-7-benzyl-13-isobutyl-N-(3-methoxyphenethyl)-11,14-dimethyl-9,12,15,19-tetraoxo-6,7,8,9,10,11,12,13,14,15,16,17,18,19-tetradecahydro-[1,3]dioxolo[4′,5′:4,5]benzo[1,2-p][1]oxa[4,7,10,14]tetraazacycloheptadecine-17-carboxamide], the pEC50 was 6.47 and the Emax was determined as 144%.

On to `CCOc1cccc(CCNC(=O)[C@@H]2CC(=O)N(C)[C@@H](CC(C)C)C(=O)N(C)CC(=O)N[C@H](Cc3ccccc3)COc3cc4c(cc3C(=O)N2)OCO4)c1` [Example 225, (7R,13S,17S)-7-benzyl-N-(3-ethoxyphenethyl)-13-isobutyl-11,14-dimethyl-9,12,15,19-tetraoxo-6,7,8,9,10,11,12,13,14,15,16,17,18,19-tetradecahydro-[1,3]dioxolo[4′,5′:4,5]benzo[1,2-p][1]oxa[4,7,10,14]tetraazacycloheptadecine-17-carboxamide], for which the pEC50 was 6.72 and the Emax was 110%.
